Results taken from patent US10426758B2, “Sibiriline derivatives for use for preventing and/or treating disorders associated with cellular necroptosis” (Institut National de la Sante et de la Recherche Medicale …, priority 2015, dated 2019).

Experiments:
[1] = molecular target: ABL1(H396P)-nonphosphorylated (Homo sapiens, UniProt P00519, H396P); experiment: Competition binding assay for kinase targets of Sib (456 kinases); conditions: remaining kinase on the matrix after competition, read-out: Percent Control (%)
Method: (§1) The assay is performed by combining three components: DNA-tagged kinase (a total of 456 kinases were tested); immobilized ligand; and a test compound (here Sib). The ability of Sib to compete with the immobilized ligand is measured via quantitative PCR of the DNA tag.

AURKC = molecular target: T1, AURKC (Homo sapiens, UniProt Q9UQB9); experiment: as above; conditions: remaining kinase on the matrix after competition, read-out: Percent Control (%)
T1 sequence (Q9UQB9 1-309): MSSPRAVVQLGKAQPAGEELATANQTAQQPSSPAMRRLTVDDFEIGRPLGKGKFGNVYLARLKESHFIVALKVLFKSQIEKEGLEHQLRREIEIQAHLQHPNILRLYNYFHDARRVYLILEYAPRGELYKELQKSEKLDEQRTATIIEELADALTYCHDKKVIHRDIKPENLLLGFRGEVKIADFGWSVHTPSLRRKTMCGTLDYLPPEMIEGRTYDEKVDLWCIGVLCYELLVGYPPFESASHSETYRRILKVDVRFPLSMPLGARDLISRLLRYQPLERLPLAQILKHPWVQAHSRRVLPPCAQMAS
Method: as §1

[2] = molecular target: T2, JAK2 (JH1domain-catalytic) (Homo sapiens, UniProt O60674); experiment: as above; conditions: remaining kinase on the matrix after competition, read-out: Percent Control (%)
T2 construct: JAK2(JH1domain-catalytic)
Method: as §1

DRAK2 = molecular target: T3, DRAK2 (Homo sapiens, UniProt O94768); experiment: as above; conditions: remaining kinase on the matrix after competition, read-out: Percent Control (%)
T3 sequence (O94768 1-372): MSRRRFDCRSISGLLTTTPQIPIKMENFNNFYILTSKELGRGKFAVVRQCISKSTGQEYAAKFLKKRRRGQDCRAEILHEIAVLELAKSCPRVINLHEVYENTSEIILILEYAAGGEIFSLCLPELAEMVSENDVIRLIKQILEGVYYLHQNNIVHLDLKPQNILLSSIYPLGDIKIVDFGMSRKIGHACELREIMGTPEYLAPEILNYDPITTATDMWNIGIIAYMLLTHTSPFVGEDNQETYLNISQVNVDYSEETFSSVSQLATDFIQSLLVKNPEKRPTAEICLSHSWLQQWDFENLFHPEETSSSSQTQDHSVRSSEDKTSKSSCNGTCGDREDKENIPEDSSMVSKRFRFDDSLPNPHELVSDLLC
Method: as §1

KIT = KIT (Homo sapiens, UniProt P10721); experiment: as above; conditions: remaining kinase on the matrix after competition, read-out: Percent Control (%)
Method: as §1

RIPK1 = molecular target: T4, RIPK1 (Homo sapiens, UniProt Q13546); experiment: as above; conditions: remaining kinase on the matrix after competition, read-out: Percent Control (%)
T4 construct: purchased DiscoveRx Corporation (KdELECT service)
T4 sequence (Q13546 1-671): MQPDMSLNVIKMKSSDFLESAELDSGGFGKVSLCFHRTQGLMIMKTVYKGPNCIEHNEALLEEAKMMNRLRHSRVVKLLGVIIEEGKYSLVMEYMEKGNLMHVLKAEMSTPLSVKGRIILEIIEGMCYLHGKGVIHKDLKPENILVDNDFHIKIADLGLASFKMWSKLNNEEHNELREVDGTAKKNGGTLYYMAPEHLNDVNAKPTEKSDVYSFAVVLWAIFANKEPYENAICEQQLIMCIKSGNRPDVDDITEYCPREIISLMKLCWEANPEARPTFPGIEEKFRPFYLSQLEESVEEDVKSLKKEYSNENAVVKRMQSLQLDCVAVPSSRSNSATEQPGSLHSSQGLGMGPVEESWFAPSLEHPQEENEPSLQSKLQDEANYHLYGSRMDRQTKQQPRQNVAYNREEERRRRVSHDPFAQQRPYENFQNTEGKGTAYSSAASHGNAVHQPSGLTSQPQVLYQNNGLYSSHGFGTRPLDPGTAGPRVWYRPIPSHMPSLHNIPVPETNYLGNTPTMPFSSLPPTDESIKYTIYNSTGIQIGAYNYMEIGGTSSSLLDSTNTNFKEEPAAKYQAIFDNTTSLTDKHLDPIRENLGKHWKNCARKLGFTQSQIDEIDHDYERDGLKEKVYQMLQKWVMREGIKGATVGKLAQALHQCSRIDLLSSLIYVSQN
Method: as §1

[3] = test system: murine model of acute hepatitis (concanavalin A-induced hepatitis); experiment: Concanavalin A-induced acute hepatitis in mice; format: in vivo, C57Bl/6 WT mice
Method: We use a murine model of acute hepatitis (concanavalin A-induced hepatitis) that depends on necroptosis induction (Jouan-Lanhouet et al. Semin. Cell. Dev. Biol. 2014, 35, 2-13). Sib is diluted in 50% PBS/50% DMSO.
C57Bl/6 WT mice were pre-treated or not with 3, 6 or 9 mg/kg Sib or 6.25 mg/kg Nec-1s injected by intraperitoneal route 1 hour before treatment or not with 12 mg/kg Con A for 10 h (intravenous route) (50% PBS/50% DMSO, n=5; 50% PBS/50% DMSO+Con A, n=5; 3 mg/kg Sib+Con A, n=5; 6 mg/kg Sib+Con A, n=5; 9 mg/kg Sib+Con A, n=5; 6.25 mg/kg Nec-1s+Con A, n=5).

KIT, sequence (P10721 26-976): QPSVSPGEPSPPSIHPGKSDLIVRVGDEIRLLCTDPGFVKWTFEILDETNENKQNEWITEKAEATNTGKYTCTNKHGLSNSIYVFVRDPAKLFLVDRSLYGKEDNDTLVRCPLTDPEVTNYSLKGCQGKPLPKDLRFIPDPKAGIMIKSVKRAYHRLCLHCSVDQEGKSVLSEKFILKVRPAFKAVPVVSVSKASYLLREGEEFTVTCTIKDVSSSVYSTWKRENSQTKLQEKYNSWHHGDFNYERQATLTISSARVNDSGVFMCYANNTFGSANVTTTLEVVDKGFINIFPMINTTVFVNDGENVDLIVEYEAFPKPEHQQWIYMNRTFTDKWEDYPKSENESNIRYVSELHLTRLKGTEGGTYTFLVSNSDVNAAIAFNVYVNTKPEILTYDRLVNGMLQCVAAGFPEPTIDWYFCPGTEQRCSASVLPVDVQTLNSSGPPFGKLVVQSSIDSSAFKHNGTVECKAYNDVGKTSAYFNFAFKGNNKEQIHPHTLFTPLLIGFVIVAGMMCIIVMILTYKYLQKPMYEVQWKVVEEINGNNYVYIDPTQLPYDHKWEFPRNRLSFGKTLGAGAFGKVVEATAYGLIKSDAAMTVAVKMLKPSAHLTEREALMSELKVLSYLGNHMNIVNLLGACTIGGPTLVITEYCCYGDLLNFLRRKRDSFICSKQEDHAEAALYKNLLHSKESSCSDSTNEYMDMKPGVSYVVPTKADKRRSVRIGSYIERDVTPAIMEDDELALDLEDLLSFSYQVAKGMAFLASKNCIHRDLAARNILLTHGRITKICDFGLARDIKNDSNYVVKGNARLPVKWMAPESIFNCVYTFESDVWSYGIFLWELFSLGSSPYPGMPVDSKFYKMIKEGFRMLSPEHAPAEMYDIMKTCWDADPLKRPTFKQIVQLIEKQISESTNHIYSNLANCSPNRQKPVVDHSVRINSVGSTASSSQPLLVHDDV
T2 sequence (O60674 849-1124 limits assumed): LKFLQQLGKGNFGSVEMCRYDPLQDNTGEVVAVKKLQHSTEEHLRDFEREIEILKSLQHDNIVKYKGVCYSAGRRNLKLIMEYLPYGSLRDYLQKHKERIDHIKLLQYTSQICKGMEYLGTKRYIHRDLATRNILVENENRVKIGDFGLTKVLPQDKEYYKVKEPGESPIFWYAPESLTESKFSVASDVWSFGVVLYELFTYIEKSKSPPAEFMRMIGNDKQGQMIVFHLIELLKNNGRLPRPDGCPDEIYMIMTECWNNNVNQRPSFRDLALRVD

Oc1ccc(-c2cc3cccnc3[nH]2)cc1 [compound 2, 4-(1H-pyrrolo[2,3-b]pyridin-2-yl)phenol]
remaining binding at 10 µM [1]: 1% | remaining binding at 10 µM (AURKC): 0.7% | remaining binding at 10 µM [2]: 0.2% | remaining binding at 10 µM (DRAK2): 0.75% | remaining binding at 10 µM (KIT): 0.8% | remaining binding at 10 µM (RIPK1): 0.2% | AST and ALT levels and protection from Con A-induced hepatitis ([3]; Sib 9 mg/kg intraperitoneal 1 hour before 12 mg/kg Con A for 10 h): This protection is not observed | AST and ALT levels and protection from Con A-induced hepatitis ([3]; Sib 3 or 6 mg/kg intraperitoneal 1 hour before 12 mg/kg Con A for 10 h): has a tendency to decrease AST and ALT levels and to protect mice from Con A-induced hepatitis | serum aminotransaminases (ALT, AST) levels induced by ConA (figure legend) ([3]; dose of 3 mg/kg): decreases these serum transaminase levels
